# Tests used:
# Format in all cases: cell-based
# CCR5 = CCR5 staining with 6-TG selection in mPB CD34+ cells; conditions: 100 nM of 6TG day 4 to 14, flow at day 14; without 6TG 44.9%
# Description: Assay protocols and results for CCR5 staining with 6-TG selection in sh734-KI mPB CD34+ cells (i.e. Mobilized CD34+ cells cultured with TPO/SCF/FLT3/IL3 and Knock-out of CCR5 and knock-in of sh734 in CD34+ cells)
# Nanocapsules were formulated to contain CRISPR/Cas9/gRNAR targeting CCR5/mi-sh734 expression cassette HDR template CRISPR machinery complex (see methods). Cd34+ cells were thawed and pre-stimulated in x-vivo 10 with 100 ng/mL of TPO/SCF/FLT4/IL3 for overnight. Then 500 ng of Cas9-CCR5-gRNA-3G-mi-sh734 nanocapsules were added into 5×10^4 cells per well and 100 nM of 6TG was added into culture media from day 4 to 14. The flow analysis was carried out at day 14.
# 6-TG selection was examined using VCN/InDel data. mPB CD34+ were transfected/transduced as indicated in FIG. 8A Nanocapsules were formulated to contain CRISPR/Cas9/gRNAR targeting CCR5/mi-sh734 expression cassette HDR template CRISPR machinery complex (see methods). Cd34+ cells were thawed and prestimulated in X-vivo 10 with 100 ng/mL of TPO/SCF/FLT4/IL3 for overnight. Then 500 ng of Cas9-CCR5-gRNA-3G-mi-sh734 nanocapsules were added into 5×10^4 cells per well and 100 nM of 6TG was added into culture media from day 4 to 14. The flow analysis was carried out at day 14.
# CEM cells = experiment: Negative selection with MTX or MPA on transduced or transfected CEM cells; conditions: for GFP-population of transduced cells (HPRT knockdown): FIG. 10A, CEM experiment; for HPRT knockout population of CEM cells: FIG. 10B
# Description: FIGS. 10A and 10B illustrate the effect of negative selection with 300 nM of MTX, 1 uM and 10 uM of MPA on CEM cells transduced with sh7-GFP lentiviral vector or transfected with RNP targeting HPRT1 nanocapsules.
# Transduced or transfected CEM cells (such as those from Example 6) were cultured with or without MTX from day 0 to day 14. The medium was refreshed every 3 to 4 days. GFP was analyzed on flow machine and InDel % was analyzed by T7E1 assay.
# K562 cells = experiment: Negative selection with MTX on transduced or transfected K562 cells; conditions: 0.3 uM of MTX
# Description: FIGS. 9A and 9B illustrate the effect of negative selection with 300 nM of MTX on K562 cells transduced with sh7-GFP lentiviral vector or transfected with RNP targeting HPRT1 nanocapsules.
# Transduced or transfected K562 cells (such as those from Example 5) were cultured with or without MTX from day 0 to day 14. The medium was refreshed every 3 to 4 days. GFP was analyzed on flow machine and InDel % was analyzed by T7E1 assay. […] FIG. 9B illustrated that the transfected K562 cells were eliminated under treatment with 0.3 uM of MTX at a faster pace as compared with the HPRT-KD population.
structure (smiles),measurement,setting,value
"Nc1nc2nc[nH]c2c(=S)[nH]1 [6TG, 6-thioguanine]",CCR5+ of CD34+ cells with 6TG treatment (no nanocapsule),CCR5,43.4%
"COc1c(C)c2c(c(O)c1C/C=C(\C)CCC(=O)O)C(=O)OC2 [MPA, mycophenolic acid]",GFP-population of transduced cells (HPRT knockdown),CEM cells; 1 uM of MPA,decreased
same,GFP-population of transduced cells (HPRT knockdown),CEM cells; 10 uM of MPA,decreased
same,HPRT knockout population of CEM cells,CEM cells; 1 uM of MPA,eliminated at a faster pace
same,HPRT knockout population of CEM cells,CEM cells; 10 uM of MPA,eliminated at a faster pace
"CN(Cc1cnc2nc(N)nc(N)c2n1)c1ccc(C(=O)N[C@@H](CCC(=O)O)C(=O)O)cc1 [MTX, methotrexate]",GFP-population of transduced cells (HPRT knockdown),CEM cells; 0.3 uM of MTX,decreased
same,HPRT knockout population of CEM cells,CEM cells; 0.3 uM of MTX,eliminated at a faster pace
same,GFP-population of transduced K562 cells (HPRT knockdown),"K562 cells; FIG. 9A, day 0 to day 14",decreased
same,transfected (HPRT knockout) K562 cells,"K562 cells; FIG. 9B, compared with the HPRT-KD population",eliminated
